System: ryr1b skeletal muscles
Assay: Tetanic force per cross-sectional area in larvae at 5 dpf
Format: in vivo, zebrafish (Danio rerio)
Protocol: Tetanic forces were measured following stimulation with 9 biphasic, 200 μs square-wave pulses at 300 Hz (WT-DMSO: 45.6±4.2 kPa, n=5; WT-NIF: 52.8±4.1 kPa, n=5; ryr1b-DMSO: 11.4±1.3 kPa, n=7; ryr1b-NIF: 25.4±4.0 kPa, n=7). Significance was determined by a one-way ANOVA (F=29.61, P<0.0001), followed by pairwise Tukey's HSD post hoc tests. […] Non-linear regression data of curves were not statistically different, as determined by an extra sum-of-squares F test (P=1.0).
Ryr1b mutants display weaker muscle contractions than wild-type clutchmates as early as 2 dpf^30. To investigate whether […] affects contractile strength in zebrafish, ryr1b mutants and unaffected controls were treated with the compound for several days. At 5 dpf, electrophysiological studies were performed with the help of Dr. Jeffrey Widrick.

O=C(N/N=C/c1ccc([N+](=O)[O-])o1)c1ccc(O)cc1 [Nifuroxazide]
tetanic forces in treated mutants: restored to wild-type levels | tetanic force per cross-sectional area, ryr1b mutants (ryr1b, n=7, 9 biphasic 200 μs pulses at 300 Hz, ryr1b-DMSO 11.4±1.3, WT-DMSO 45.6±4.2): 25.4±4.0 kPa

Source: US10973912B2, “Treatment for myopathy” (Children's Medical Center Corporation, priority 2015, dated 2021)
